Reference: US9765092B2, “Tricyclic piperidine compounds” (ACTELION PHARMACEUTICALS LTD, priority 2013, dated 2017)

Biological target: human TPH1 (Homo sapiens (Human), UniProt P17752)
Assay: Biochemical in vitro assay using fluorescence readout (TPH1 inhibition)
Settings: full length human TPH1, 40 μM L-tryptophan, 15° C., 60 minutes, fluorescence at 540 nm; mean if determined several times
From the text: Biochemical In Vitro Assay Using Fluorescence Readout
To generate the enzyme, full length human TPH1 is cloned into the plasmid pET20b(+) (Novagen) and expressed in E. coli. The bacterial cells are ruptured by sonication on ice and the lysate is cleared by centrifugation. The resulting protein in the pellet is re-extracted and TPH1 is purified from the obtained lysate by affinity chromatography using a pterin cosubstrate analog immobilized to the resin of the column. The protein is further purified by size exclusion chromatography to remove protein aggregates. The activity of TPH1 is determined by using a fluorescence assay. The enzyme activity assay is carried out at 15° C. with atmosphere oxygen for the duration of 60 minutes in a volume of 64 μl. The reaction is carried out in a 0.1 M Tris-HCl buffer, adjusted to pH 7.6, containing 1 mM DTT, 0.2 mg/mL catalase, 100 μM (±)-6-methyl-5,6,7,8-tetrahydropterine dihydrochloride, 40 μM L-tryptophan, and 40-80 nM of TPH1. The reaction is started by bringing together L-tryptophan with all the other reaction substituents and stopped by quenching with perchloric acid (HClO4). The amount of 5-hydroxy-L-tryptophan produced during the enzymatic reaction is determined by fluorescence readout. Fluorescence, as determined at 540 nm when excited at 300 nm wavelength, increases proportionally to the 5-hydroxy-L-tryptophan formed. Compounds are prepared as 10 mM stock solution in DMSO, then diluted in 384-well plates using DMSO followed by a transfer of the dilutions into the assay plate. Fluorescence is measured for each well and the fluorescence at 540 nm wavelength is compared to the fluorescence of the vehicle in place of compound. Inhibitory activities of example compounds with respect to the TPH1 protein are determined by calculating the IC50 value (the concentration of compound needed to inhibit 50% of the enzyme activity). The calculated IC50 values may fluctuate depending on the daily biochemical assay performance. Fluctuations of this kind are known to those skilled in the art.

Sequence of human TPH1 (P17752 whole entry): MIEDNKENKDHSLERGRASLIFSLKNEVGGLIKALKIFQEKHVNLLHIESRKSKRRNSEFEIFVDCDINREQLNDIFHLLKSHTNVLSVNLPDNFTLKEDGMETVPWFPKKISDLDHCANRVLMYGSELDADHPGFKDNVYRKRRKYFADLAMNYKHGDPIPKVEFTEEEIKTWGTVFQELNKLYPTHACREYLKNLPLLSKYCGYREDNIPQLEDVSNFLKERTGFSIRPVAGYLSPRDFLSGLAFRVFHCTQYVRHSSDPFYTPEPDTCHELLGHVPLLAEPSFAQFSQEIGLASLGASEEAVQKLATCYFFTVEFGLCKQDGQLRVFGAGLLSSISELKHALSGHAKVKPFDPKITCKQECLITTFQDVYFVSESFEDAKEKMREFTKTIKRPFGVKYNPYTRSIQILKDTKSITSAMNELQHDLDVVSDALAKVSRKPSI

Row | Compound | IC50 [nM]
1 | Cc1nn2c3c(nc2s1)CCN(C(=O)COc1ccc(C(=O)N(C)C)nc1Cl)C3c1cc(C(=O)N(C)C)cs1 (stereo not shown) [Example 1.9.5, 6-Chloro-5-(2-(5-(4-(dimethylcarbamoyl)thiophen-2-yl)-2-methyl-7,8-dihydro-[1,3,4]-thiadiazolo[2′,3′:2,3]imidazo[4,5-c]pyridin-6(5H)-yl)-2-oxoethoxy)-N,N-dimethyl-picolinamide] | 22

Same assay, conditions: human TPH1, fluorescence readout

Row | Compound | IC50 [nM]
2 | Cc1cc(Cl)ccc1OCC(=O)N1CCc2nc3sccn3c2C1c1cccnc1F (stereo not shown) [Example 6.2.5, 2-(4-chloro-2-methylphenoxy)-1-(5-(2-fluoropyridin-3-yl)-7,8-dihydrothiazolo[2′,3′:2,3]imidazo[4,5-c]pyridin-6(5H)-yl)ethanone] | 26
3 | Cn1nc(OCC(=O)N2CCc3nc4sccn4c3C2c2cccnc2F)c(C(F)(F)F)c1Cl (stereo not shown) [Example 6.2.6, 2-((5-chloro-1-methyl-4-(trifluoromethyl)-1H-pyrazol-3-yl)oxy)-1-(5-(2-fluoropyridin-3-yl)-7,8-dihydrothiazolo[2′,3′:2,3]imidazo[4,5-c]pyridin-6(5H)-yl)ethanone] | 419
4 | N#Cc1ccc(OCC(=O)N2CCc3nc4sc(C5CC5)nn4c3C2c2ccc(Cl)cc2F)c(Cl)c1 (stereo not shown) [Example 4.1.2, 3-chloro-4-(2-(5-(4-chloro-2-fluorophenyl)-2-cyclopropyl-7,8-dihydro-[1,3,4]thiadiazolo-[2′,3′:2,3]imidazo[4,5-c]pyridin-6(5H)-yl)-2-oxoethoxy)benzonitrile] | 23
5 | COC(=O)c1ccc(C2c3c(nc4sc(C)nn34)CCN2C(=O)COc2ccc(C(=O)NC3CC3)nc2Cl)c(F)c1 (stereo not shown) [Example 1.79.2, methyl-4-(6-(2-((2-chloro-6-(cyclopropylcarbamoyl)pyridin-3-yl)oxy)acetyl)-2-methyl-5,6,7,8-tetrahydro-[1,3,4]thiadiazolo[2′,3′:2,3]imidazo[4,5-c]pyridin-5-yl)-3-fluorobenzoate] | 21
6 | Cc1nn2c3c(nc2s1)CCN(C(=O)COc1cc(F)c(I)nc1Cl)C3c1ncc(C2CC2)cc1F (stereo not shown) [Example 1.14.6, 2-((2-chloro-5-fluoro-6-iodopyridin-3-yl)oxy)-1-(5-(5-cyclopropyl-3-fluoropyridin-2-yl)-2-methyl-7,8-dihydro-[1,3,4]thiadiazolo[2′,3′:2,3]imidazo[4,5-c]pyridin-6(5H)-yl)ethanone] | 6
7 | Cc1nn2c3c(nc2s1)CCN(C(=O)COc1ccc(C(=O)N(C)C)nc1Cl)C3c1ccc(C(F)(F)F)cc1F (stereo not shown) [Example 1.56.1, 6-chloro-5-(2-(5-(2-fluoro-4-(trifluoromethyl)phenyl)-2-methyl-7,8-dihydro-[1,3,4]thiadiazolo[2′,3′:2,3]imidazo[4,5-c]pyridin-6(5H)-yl)-2-oxoethoxy)-N,N-dimethylpicolinamide] | 15
8 | Cc1nn2c3c(nc2s1)CCN(C(=O)COc1cccnc1Cl)C3c1cnc(N2CCOCC2)s1 (stereo not shown) [Example 1.7.3, 2-((2-chloropyridin-3-yl)oxy)-1-(2-methyl-5-(2-morpholinothiazol-5-yl)-7,8-dihydro-[1,3,4]thiadiazolo [2′,3′:2,3]imidazo[4,5-c]pyridin-6(5H)-yl)ethanone] | 338
9 | Cc1nn2c3c(nc2s1)CCN(C(=O)COc1ccc(C(F)(F)F)nc1Cl)C3c1sc(C(=O)N(C)C)cc1F (stereo not shown) [Example 1.24.2, 5-(6-(2-((2-chloro-6-(trifluoromethyl)pyridin-3-yl)oxy)acetyl)-2-methyl-5,6,7,8-tetrahydro-[1,3,4]thiadiazolo [2′,3′:2,3]imidazo[4,5-c]pyridin-5-yl)-4-fluoro-N,N-dimethylthiophene-2-carboxamide] | 22
10 | Cc1ccc(C2c3c(nc4sccn34)CCN2C(=O)COc2ccc(Cl)cc2C)c(F)c1 (stereo not shown) [Example 6.10.1, 2-(4-chloro-2-methylphenoxy)-1-(5-(2-fluoro-4-methyl-phenyl)-7,8-dihydrothiazolo[2′,3′:2,3]imidazo[4,5-c]-pyridin-6(5H)-yl)ethanone] | 5
11 | Cc1nn2c3c(nc2s1)CCN(C(=O)COc1ccc(N(C)C)nc1Cl)C3c1ccc(Cl)nc1F (stereo not shown) [Example 1.16.1, 1-(5-(6-chloro-2-fluoropyridin-3-yl)-2-methyl-7,8-dihydro-[1,3,4]thiadiazolo[2′,3′:2,3]imidazo[4,5-c]pyridin-6(5H)-yl)-2-((2-chloro-6-(dimethylamino)pyridin-3-yl)oxy)ethanone] | 5
12 | Cc1cc(Cl)ccc1OCC(=O)N1CCc2nc3sccn3c2C1c1nc2ccccc2s1 (stereo not shown) [Example 6.12.4, 1-(5-(benzo[d]thiazol-2-yl)-7,8-dihydrothiazolo-[2′,3′:2,3]imidazo[4,5-c]pyridin-6(5H)-yl)-2-(4-chloro-2-methylphenoxy)ethanone] | 36
13 | Cc1nn(C)c(C)c1C1c2c(nc3sccn23)CCN1C(=O)COc1ccc(C(F)(F)F)cc1Cl (stereo not shown) [Example 6.15.2, 2-(2-chloro-4-(trifluoromethyl)phenoxy)-1-(5-(1,3,5-trimethyl-1H-pyrazol-4-yl)-7,8-dihydrothiazolo-[2′,3′:2,3]imidazo[4,5-c]pyridin-6(5H)-yl)ethanone] | 48
14 | Cc1nn2c3c(nc2s1)CCN(C(=O)COc1ccc(C(=O)NC2CC2)nc1Cl)C3c1ccc(C(C)(C)O)cc1F (stereo not shown) [Example 1.80.2, 6-chloro-N-cyclopropyl-5-(2-(5-(2-fluoro-4-(2-hydroxypropan-2-yl)phenyl)-2-methyl-7,8-dihydro-[1,3,4]thiadiazolo[2′,3′:2,3]imidazo[4,5-c]pyridin-6(5H)-yl)-2-oxoethoxy)picolinamide] | 65
15 | CS(=O)(=O)Nc1ccc(OCC(=O)N2CCc3nc4sccn4c3C2c2sccc2F)c(Cl)n1 (stereo not shown) [Example 6.8.4, N-(6-chloro-5-(2-(5-(3-fluorothiophen-2-yl)-7,8-dihydrothiazolo[2′,3′:2,3]imidazo[4,5-c]pyridin-6(5H)-yl)-2-oxoethoxy)pyridin-2-yl)methanesulfonamide] | 7
16 | O=C(COc1cccc(C(F)(F)F)c1Cl)N1CCc2nc3sccn3c2C1c1cnn(-c2ccccc2)c1 (stereo not shown) [Example 6.13.1, 2-(2-chloro-3-(trifluoromethyl)phenoxy)-1-(5-(1-phenyl-1H-pyrazol-4-yl)-7,8-dihydrothiazolo[2′,3′:2,3]-imidazo[4,5-c]pyridin-6(5H)-yl)ethanone] | 75
17 | CCc1nn2c3c(nc2s1)CCN(C(=O)COc1ccc(NS(C)(=O)=O)nc1Cl)C3c1ccc(Cl)cc1F (stereo not shown) [Example 3.1.1, N-(6-chloro-5-(2-(5-(4-chloro-2-fluorophenyl)-2-ethyl-7,8-dihydro-[1,3,4]thiadiazolo[2′,3′:2,3]imidazo[4,5-c]-pyridin-6(5H)-yl)-2-oxoethoxy)pyridin-2-yl)methanesulfonamide] | 13
18 | Cc1ccc(C2c3c(nc4sc(C(F)F)nn34)CCN2C(=O)COc2ccc(NS(C)(=O)=O)nc2Cl)c(F)c1 (stereo not shown) [Example 8.2.1, N-(6-chloro-5-(2-(2-(difluoromethyl)-5-(2-fluoro-4-methylphenyl)-7,8-dihydro-[1,3,4]thiadiazolo[2′,3′:2,3]imidazo[4,5-c]pyridin-6(5H)-yl)-2-oxoethoxy)pyridin-2-yl)methanesulfonamide] | 24
19 | Cc1nn2c3c(nc2s1)CCN(C(=O)COc1ccc(Cl)cc1C)C3c1cc(CN(C)C)cs1 (stereo not shown) [Example 1.8.3, 2-(4-chloro-2-methylphenoxy)-1-(5-(4-((dimethylamino)methyl)thiophen-2-yl)-2-methyl-7,8-dihydro-[1,3,4]thiadiazolo [2′,3′:2,3]imidazo[4,5-c]pyridin-6(5H)-yl)ethanone] | 95
20 | CCOC(=O)c1csc(C2c3c(nc4sc(C)nn34)CCN2C(=O)COc2ccc(C(F)(F)F)cc2Cl)n1 (stereo not shown) [Example 1.27.3, ethyl 2-(6-(2-(2-chloro-4-(trifluoromethyl)phenoxy)acetyl)-2-methyl-5,6,7,8-tetrahydro-[1,3,4]thiadiazolo[2′,3′:2,3]imidazo[4,5-c]pyridin-5-yl)thiazole-4-carboxylate] | 245
21 | Cc1nn2c3c(nc2s1)CCN(C(=O)COc1ccc(N2CCOCC2)nc1Cl)C3c1ccc(C2CC2)cc1F (stereo not shown) [Example 1.6.17, 2-((2-chloro-6-morpholinopyridin-3-yl)oxy)-1-(5-(4-cyclopropyl-2-fluorophenyl)-2-methyl-7,8-dihydro-[1,3,4]thiadiazolo [2′,3′:2,3]imidazo[4,5-c]pyridin-6(5H)-yl)ethanone] | 3
22 | Cc1nn2c3c(nc2s1)CCN(C(=O)COc1ccc(C(=O)N(C)C)nc1Cl)C3c1ccc(F)cc1F (stereo not shown) [Example 1.55.1, 6-chloro-5-(2-(5-(2,4-difluorophenyl)-2-methyl-7,8-dihydro-[1,3,4]thiadiazolo[2′,3′:2,3]imidazo[4,5-c]pyridin-6(5H)-yl)-2-oxoethoxy)-N,N-dimethylpicolinamide] | 19
